Results as given in ChEMBL document CHEMBL1201862, “PubChem BioAssay data set” (2004).
Calls of active or inactive are those of the source.

Legend:
[1] = biological target: T1, Corticotropin-releasing factor receptor 2/Corticotropin-releasing factor-binding protein (Homo sapiens, UniProt P24387+Q13324); experiment: Dose Response confirmation of uHTS hits for small molecule antagonists of the CRF-binding protein and CRF-R2 receptor complex.; type: functional; conditions: read-out: IC50_Mean
T1 sequence (Q13324 whole entry): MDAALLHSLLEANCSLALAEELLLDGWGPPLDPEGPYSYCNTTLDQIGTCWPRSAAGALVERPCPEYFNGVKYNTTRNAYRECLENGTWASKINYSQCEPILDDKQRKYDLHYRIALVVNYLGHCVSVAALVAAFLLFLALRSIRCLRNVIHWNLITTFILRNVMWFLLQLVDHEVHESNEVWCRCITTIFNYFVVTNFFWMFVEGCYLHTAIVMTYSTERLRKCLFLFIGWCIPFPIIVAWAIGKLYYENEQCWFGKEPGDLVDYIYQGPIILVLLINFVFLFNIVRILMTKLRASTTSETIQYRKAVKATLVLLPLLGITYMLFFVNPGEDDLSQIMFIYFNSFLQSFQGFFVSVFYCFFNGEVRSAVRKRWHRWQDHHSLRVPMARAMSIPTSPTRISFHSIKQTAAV
T1 sequence (P24387 whole entry): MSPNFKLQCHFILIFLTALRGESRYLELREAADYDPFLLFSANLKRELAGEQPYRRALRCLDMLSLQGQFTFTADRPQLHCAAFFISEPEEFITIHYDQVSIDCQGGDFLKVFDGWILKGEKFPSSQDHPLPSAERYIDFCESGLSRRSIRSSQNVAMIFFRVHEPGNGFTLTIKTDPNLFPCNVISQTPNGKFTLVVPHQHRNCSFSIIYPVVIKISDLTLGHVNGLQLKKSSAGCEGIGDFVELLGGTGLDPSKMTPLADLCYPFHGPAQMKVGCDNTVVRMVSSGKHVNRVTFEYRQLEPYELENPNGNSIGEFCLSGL

[2] = biological target: T1, Corticotropin-releasing factor receptor 2/Corticotropin-releasing factor-binding protein; experiment: activators of CRF receptor 2 with binding protein – uHTS hits, confirmation (AID 602473); type: functional; conditions: read-out: EC50_Mean
[3] = blockers of CRF-binding protein–CRF-R2 complex – cell-based, uHTS hits, 384-well, dose response (AID 651639); type: functional, Homo sapiens; conditions: read-out: IC50_Mean
[4] = biological target: T2, Probable nicotinate-nucleotide adenylyltransferase (Staphylococcus aureus (strain N315), UniProt P65502); type: functional, Staphylococcus aureus subsp. aureus N315;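 for IC50 Mean: confirmatory dose-response retesting of NadD inhibitor hits first found in an ultra-high-throughput screen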
T2 sequence (P65502 whole entry): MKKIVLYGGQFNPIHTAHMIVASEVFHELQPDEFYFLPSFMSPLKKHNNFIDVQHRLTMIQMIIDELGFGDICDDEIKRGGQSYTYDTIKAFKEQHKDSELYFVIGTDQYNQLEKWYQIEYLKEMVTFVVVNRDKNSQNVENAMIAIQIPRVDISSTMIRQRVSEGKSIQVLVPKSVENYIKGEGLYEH

[5] = biological target: T2, Probable nicotinate-nucleotide adenylyltransferase; type: functional, Staphylococcus aureus subsp. aureus N315; conditions: read-out: IC50_Mean
[6] = biological target: T3, Methionyl-tRNA synthetase, putative (Trypanosoma brucei brucei, UniProt Q38C91); type: functional, Trypanosoma brucei brucei strain 927/4 GUTat10.1
T3 sequence (Q38C91 whole entry): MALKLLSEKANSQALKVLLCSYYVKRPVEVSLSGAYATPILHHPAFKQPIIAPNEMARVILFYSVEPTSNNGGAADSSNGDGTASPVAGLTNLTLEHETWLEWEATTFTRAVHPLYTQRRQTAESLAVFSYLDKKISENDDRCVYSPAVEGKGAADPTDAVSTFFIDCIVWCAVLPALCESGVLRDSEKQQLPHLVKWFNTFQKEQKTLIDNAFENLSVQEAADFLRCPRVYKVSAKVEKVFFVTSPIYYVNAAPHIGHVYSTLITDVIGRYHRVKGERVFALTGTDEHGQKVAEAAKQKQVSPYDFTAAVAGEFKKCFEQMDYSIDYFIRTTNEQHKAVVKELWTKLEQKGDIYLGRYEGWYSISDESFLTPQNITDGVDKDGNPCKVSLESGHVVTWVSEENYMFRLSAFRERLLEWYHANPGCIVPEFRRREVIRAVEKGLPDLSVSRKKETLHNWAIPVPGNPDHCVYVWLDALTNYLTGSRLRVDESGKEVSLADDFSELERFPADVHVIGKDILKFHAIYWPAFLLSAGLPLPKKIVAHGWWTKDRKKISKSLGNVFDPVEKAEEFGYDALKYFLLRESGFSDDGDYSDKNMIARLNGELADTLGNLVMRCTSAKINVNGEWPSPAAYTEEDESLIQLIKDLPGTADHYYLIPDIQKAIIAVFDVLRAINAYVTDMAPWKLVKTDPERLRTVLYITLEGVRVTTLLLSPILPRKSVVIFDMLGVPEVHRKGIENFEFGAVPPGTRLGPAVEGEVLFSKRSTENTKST

[7] = biological target: T3, Methionyl-tRNA synthetase, putative; type: functional, Trypanosoma brucei brucei strain 927/4 GUTat10.1; remark: listed apart in the source
[8] = Counterscreen for inhibitors of Trypanosoma brucei methionyl tRNA synthetase (MetRS): Luminescence-based cell-based high throughput dose response assay to identify compounds that are cytotoxic to Jurkat human T lymphocyte cells.; type: functional
[9] = biological target: T4, Heat shock factor protein 1 (Mus musculus, UniProt P38532); experiment: enhancement of HSF1-driven luciferase signal – cell-based, NIH3T3, luminescence, dose retest, confirmation (AID 435004); type: functional;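 note: stress induced by proteasome inhibitor MG132 added 30 min after compound; luciferase reporter driven by HSF1 response element in NIH3T3 cells; actives raise luminescence as potentiators of the MG132 stress response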
T4 sequence (P38532 whole entry): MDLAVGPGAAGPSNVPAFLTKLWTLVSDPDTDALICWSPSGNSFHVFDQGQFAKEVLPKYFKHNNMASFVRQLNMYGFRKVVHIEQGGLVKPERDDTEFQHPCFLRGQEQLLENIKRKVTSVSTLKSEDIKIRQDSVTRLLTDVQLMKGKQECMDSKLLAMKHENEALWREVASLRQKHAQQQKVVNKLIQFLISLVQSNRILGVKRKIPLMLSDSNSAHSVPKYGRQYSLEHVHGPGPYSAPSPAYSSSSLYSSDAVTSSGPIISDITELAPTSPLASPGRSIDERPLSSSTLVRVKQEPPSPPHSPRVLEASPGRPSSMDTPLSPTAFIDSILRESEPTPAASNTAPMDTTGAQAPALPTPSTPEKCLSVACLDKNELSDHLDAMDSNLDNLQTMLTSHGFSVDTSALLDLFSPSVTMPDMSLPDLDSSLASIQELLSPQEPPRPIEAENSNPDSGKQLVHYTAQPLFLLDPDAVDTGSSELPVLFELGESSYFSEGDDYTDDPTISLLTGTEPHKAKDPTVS

[10] = biological target: T5, Short transient receptor potential channel 4 (Mus musculus, UniProt Q9QUQ5); experiment: block of DAMGO-driven TRPC4 calcium entry – cell-based, HEK293 TRPC4/mu-opioid, Fluo-4 calcium, dose response (AID 434942); type: functional;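 note: potency of inhibitors blocking the TRPC4 calcium response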
T5 sequence (Q9QUQ5 whole entry): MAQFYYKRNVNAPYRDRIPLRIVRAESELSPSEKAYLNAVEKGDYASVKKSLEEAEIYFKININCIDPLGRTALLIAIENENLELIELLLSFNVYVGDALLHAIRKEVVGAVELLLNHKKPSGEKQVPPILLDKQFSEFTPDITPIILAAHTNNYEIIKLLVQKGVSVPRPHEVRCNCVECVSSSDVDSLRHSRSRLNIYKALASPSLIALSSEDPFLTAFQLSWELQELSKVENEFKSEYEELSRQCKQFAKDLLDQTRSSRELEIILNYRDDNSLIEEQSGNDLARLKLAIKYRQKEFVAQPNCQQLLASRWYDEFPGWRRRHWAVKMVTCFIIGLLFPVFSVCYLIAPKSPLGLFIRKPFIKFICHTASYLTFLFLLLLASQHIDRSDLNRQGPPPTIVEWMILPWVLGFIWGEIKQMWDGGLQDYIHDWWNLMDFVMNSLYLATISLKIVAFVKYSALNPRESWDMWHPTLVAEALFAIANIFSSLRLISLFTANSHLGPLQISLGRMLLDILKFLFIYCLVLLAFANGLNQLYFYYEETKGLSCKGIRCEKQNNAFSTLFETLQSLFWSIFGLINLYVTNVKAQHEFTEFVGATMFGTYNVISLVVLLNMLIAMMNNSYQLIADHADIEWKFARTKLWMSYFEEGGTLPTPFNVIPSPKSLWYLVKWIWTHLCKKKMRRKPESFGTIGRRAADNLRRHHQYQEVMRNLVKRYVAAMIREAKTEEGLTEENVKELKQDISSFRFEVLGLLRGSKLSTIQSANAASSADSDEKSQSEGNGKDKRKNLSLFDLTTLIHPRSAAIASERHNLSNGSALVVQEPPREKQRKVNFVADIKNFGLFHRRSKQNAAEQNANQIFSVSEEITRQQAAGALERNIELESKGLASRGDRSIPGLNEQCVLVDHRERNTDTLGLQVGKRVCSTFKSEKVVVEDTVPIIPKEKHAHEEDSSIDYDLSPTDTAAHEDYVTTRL

[11] = biological target: T6, DNA repair protein RAD52 homolog (Homo sapiens, UniProt P43351); type: functional, biochemical
T6 sequence (P43351 whole entry): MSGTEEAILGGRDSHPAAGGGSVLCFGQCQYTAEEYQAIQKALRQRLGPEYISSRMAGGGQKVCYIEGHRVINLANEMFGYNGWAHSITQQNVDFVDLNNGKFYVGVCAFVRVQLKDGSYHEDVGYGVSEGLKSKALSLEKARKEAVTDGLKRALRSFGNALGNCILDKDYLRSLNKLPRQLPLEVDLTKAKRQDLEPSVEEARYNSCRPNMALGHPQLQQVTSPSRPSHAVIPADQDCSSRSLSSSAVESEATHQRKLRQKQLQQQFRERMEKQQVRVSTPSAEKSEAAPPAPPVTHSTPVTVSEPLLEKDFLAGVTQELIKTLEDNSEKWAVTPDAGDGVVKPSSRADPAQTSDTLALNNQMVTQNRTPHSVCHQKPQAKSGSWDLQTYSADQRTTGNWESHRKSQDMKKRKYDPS

Vero = experiment: cells; type: functional; conditions: Chlorocebus sabaeus
Phospholipase A2 = Phospholipase A2 (Homo sapiens, UniProt P04054); type: functional;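 note: confirmatory dose-response counterscreen on phospholipase A2, testing hits that came from an ultra-high-throughput screen for ATG4B inhibitors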
Sequence of Phospholipase A2 (P04054 whole entry): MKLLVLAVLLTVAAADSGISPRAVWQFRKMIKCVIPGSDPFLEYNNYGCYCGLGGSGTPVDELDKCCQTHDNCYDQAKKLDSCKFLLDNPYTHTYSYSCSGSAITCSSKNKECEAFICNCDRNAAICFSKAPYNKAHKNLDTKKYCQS

[12] = biological target: 72 kDa type IV collagenase (Homo sapiens, UniProt P08253); experiment: Dose Response validation of uHTS RPN11 inhibitor hits using a MMP-2 Fluorescence assay.; type: functional
Sequence of 72 kDa type IV collagenase (P08253 whole entry): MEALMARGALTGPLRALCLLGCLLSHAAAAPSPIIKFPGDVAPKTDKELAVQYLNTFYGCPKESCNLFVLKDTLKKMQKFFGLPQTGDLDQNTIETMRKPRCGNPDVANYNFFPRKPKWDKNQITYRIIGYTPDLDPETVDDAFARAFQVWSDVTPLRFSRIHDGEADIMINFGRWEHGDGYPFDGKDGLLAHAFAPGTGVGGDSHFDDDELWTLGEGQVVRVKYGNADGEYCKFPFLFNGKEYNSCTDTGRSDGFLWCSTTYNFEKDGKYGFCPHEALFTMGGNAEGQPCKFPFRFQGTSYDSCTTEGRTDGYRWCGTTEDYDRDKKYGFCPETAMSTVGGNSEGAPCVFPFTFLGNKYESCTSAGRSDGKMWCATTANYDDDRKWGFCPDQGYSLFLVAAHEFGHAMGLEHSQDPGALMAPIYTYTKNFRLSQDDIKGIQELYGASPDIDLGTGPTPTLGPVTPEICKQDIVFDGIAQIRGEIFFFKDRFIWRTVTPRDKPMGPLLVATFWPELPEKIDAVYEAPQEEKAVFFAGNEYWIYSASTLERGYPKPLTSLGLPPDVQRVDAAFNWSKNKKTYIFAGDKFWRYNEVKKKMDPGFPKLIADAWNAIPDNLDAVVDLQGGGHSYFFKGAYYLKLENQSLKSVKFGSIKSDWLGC

Prothrombin = Prothrombin (Bos taurus, UniProt P00735); experiment: thrombin protease inhibitors – biochemical, fluorescence polarization, uHTS hits, dose response (AID 602369); type: functional
[13] = biological target: 26S proteasome non-ATPase regulatory subunit 14 (Homo sapiens, UniProt O00487); experiment: inhibition of proteasome subunit RPN11 – biochemical, fluorescence polarization, uHTS hits, confirmation (AID 602368); type: functional
Sequence of 26S proteasome non-ATPase regulatory subunit 14 (O00487 whole entry): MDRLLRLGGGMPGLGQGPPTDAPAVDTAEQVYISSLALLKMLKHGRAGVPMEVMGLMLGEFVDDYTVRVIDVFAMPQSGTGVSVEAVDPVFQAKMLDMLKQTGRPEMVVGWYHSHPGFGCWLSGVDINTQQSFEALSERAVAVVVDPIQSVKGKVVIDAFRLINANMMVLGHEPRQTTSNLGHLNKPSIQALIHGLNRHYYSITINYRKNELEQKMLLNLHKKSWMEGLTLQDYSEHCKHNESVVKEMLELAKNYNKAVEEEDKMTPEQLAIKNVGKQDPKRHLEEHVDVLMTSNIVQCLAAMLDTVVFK

Cysteine protease ATG4B = biological target: T7, Cysteine protease ATG4B (Homo sapiens, UniProt Q9Y4P1); type: functional;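 note: Fluorescence-based dose-response confirmation assay measuring inhibition of ATG4B activity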
T7 sequence (Q9Y4P1 whole entry): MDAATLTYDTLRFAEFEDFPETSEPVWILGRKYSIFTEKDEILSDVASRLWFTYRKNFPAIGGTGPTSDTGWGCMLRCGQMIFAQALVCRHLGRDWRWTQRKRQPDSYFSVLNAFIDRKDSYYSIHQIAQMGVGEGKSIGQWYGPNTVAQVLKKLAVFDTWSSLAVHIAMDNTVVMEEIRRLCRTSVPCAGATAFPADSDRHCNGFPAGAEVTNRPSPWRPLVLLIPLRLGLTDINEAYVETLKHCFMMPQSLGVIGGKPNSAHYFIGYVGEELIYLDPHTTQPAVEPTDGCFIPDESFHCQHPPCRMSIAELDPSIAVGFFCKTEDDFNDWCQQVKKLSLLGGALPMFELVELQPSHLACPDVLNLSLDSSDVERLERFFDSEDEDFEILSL

| SMILES | IC50 [1] | EC50 [2] | IC50 [3] | IC50 [6] | IC50 [7] | IC50 [8] | also measured |
| --- | --- | --- | --- | --- | --- | --- | --- |
| CCOc1ccc(S(=O)(=O)n2ccc(C)n2)c2ccccc12 | < 0.368 µM (active) | 21.2 µM (active) | 11.7 µM (active) | – | – | – | – |
| Cc1ccc(-n2nc3c(c2NC(=O)/C=C\c2ccc4c(c2)OCO4)CSC3)c(C)c1 | – | – | – | – | – | – | IC50 [4]: 5.88 µM (active); IC50 [5]: 21.5 µM (active) |
| CCOC(=O)c1sc(NC(=O)Nc2ccccc2)cc1C | – | – | – | 43.9 µM (inactive) | 4.39 µM (active) | 45 µM (inactive) | EC50 [9]: > 260 µM (inconclusive) |
| CCc1ccc2nc(NC(=N)N)nc(C)c2c1 | – | – | – | – | – | – | EC50 [10]: 15 µM (active); AC50 [11]: 16.8 µM (active) |
| N#Cc1ccsc1NC(=O)c1cccc([N+](=O)[O-])c1 | 3.12 µM (active) | 4.08 µM (active) | > 20 µM (inactive) | – | – | – | – |
| Cc1ccc(S(=O)(=O)N2CCCCC2)cc1C(=O)N(CCc1ccccc1)Cc1ccccc1 | 1.19 µM (active) | > 53 µM (inactive) | 19.3 µM (active) | – | – | – | – |
| CCCCCCCCCCCCCCC(O)C[N+](C)(CCO)CCO (configuration not stated) | – | – | – | – | – | – | CC50 (Vero): 13.1 µM (active); IC50 (Phospholipase A2): 7.95 µM (active); IC50 [12]: 85 µM (active); IC50 (Prothrombin): 50 µM (active); AC50 [11]: 8.88 µM (active); IC50 [13]: 25.3 µM (active); IC50 (Cysteine protease ATG4B): 8.23 µM (active) |
| CCOc1ccccc1NS(=O)(=O)c1c(C)[nH]c(C)c1C(=O)N1CCCCC1 | – | – | – | 11.2 µM (inactive) | 26.1 µM (inactive) | 83.3 µM (inactive) | – |
| O=C(NCc1cc(Cl)cc(Cl)c1)c1csc(COCCO)n1 | – | – | – | 5.4 µM (active) | 12.2 µM (inactive) | 83.3 µM (inactive) | – |
| Nc1ccccc1C(=O)NNC(=O)/C(O)=C/C(=O)c1ccccc1 | – | – | – | – | – | – | IC50 [4]: 4.63 µM (active); IC50 [5]: 12 µM (active) |
